According to PubChem BioAssay (NCI):
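Step 1: Grow cells in 96-well plates. Step 2: Expose to compound for 48 hours at 5 concentrations. Step 3: Interpolate endpoints linearly; if unreached, use highest concentration. GI50 marks 50% less growth. TGI: concentration producing complete growth inhibition.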

Assays:
Assay in all cases: DTP human tumour cell line panel, 48 h
HCC-2998 colon = system: HCC-2998 colon
HCT-116 colon = system: HCT-116 colon
HT29 colon = system: HT29 colon
LOX IMVI melanoma = system: LOX IMVI melanoma
SF-268 CNS = system: SF-268 CNS
SF-539 CNS = system: SF-539 CNS
SK-OV-3 ovarian = system: SK-OV-3 ovarian
SN12C renal = system: SN12C renal
U251 CNS = system: U251 CNS
SK-MEL-2 melanoma = system: SK-MEL-2 melanoma

SMILES	TGI (HCC-2998 colon) [µM]	TGI (HCT-116 colon) [µM]	TGI (HT29 colon) [µM]	TGI (LOX IMVI melanoma) [µM]	TGI (SF-268 CNS) [µM]	TGI (SF-539 CNS) [µM]	TGI (SK-OV-3 ovarian) [µM]	TGI (SN12C renal) [µM]	TGI (U251 CNS) [µM]	GI50 (HCC-2998 colon) [µM]	GI50 (HT29 colon) [µM]	GI50 (LOX IMVI melanoma) [µM]	GI50 (SF-268 CNS) [µM]	GI50 (SF-539 CNS) [µM]	GI50 (SK-MEL-2 melanoma) [µM]	TGI (SK-MEL-2 melanoma) [µM]	GI50 (SK-OV-3 ovarian) [µM]	GI50 (SN12C renal) [µM]	GI50 (U251 CNS) [µM]	GI50 (HCT-116 colon) [µM]
O=C(Cc1c(C(=O)Nc2ccccc2)sc(C(=O)Nc2ccccc2)c1CC(=O)Nc1ccccc1)Nc1ccccc1	> 100	> 100	> 100	> 100	13.7	> 100	> 100	> 100	> 100											
Cc1cc(S(=O)(=O)Nc2n[nH]c(-c3ccc(Cl)cc3)c2C#N)c(S)cc1Cl	> 100		> 100	> 100	> 100	> 100	> 100	> 100	> 100	95.5	> 100	> 100	> 100	> 100	> 100	> 100	> 100	> 100	> 100	
COC1OC(CO)C(O)C(NC(=O)N(C)N=O)C1O (stereo not drawn)	> 100	> 100	> 100		> 100	> 100	> 100	> 100	> 100							> 100				
Cc1cc(C)c2c(=O)cc(-c3ccc(F)cc3)[nH]c2n1	> 100	> 100	> 100	> 100	> 100	> 100	> 100	> 100	> 100							> 100			95.1	50
Cc1ccc(NC(=O)CC2SC(=Nc3cccc(Cl)c3C)NC2=O)cc1 (stereo not drawn)	> 100		> 100	> 100	> 100	> 100	> 100	> 100	> 100							> 100				
CCCC(c1cc(C(C)(C)C)c(O)cc1C)c1cc(C(C)(C)C)c(O)cc1C	3.3	3.96	17.5	3.43	15.1	4.7	12.4	3.81	6.85							7.22				
Cc1cc2c(=O)cc(-c3ccc(Cl)cc3Cl)oc2c(C(=O)O)c1C		> 100	> 100	> 100	> 100	> 100	> 100	> 100	> 100							> 100				
COC(=O)c1oc([N+](=O)[O-])c(-c2ccccc2)c1-c1ccccc1	> 100	> 100	> 100	> 100	> 100	> 100	> 100	> 100	> 100							> 100				
Oc1c(CCl)cc(Cl)cc1Cc1cc(Cl)cc(Cc2cc(Cl)cc(CCl)c2O)c1O	12.2	10.4	17.6	12.2	62.1	18.2	11.4	8.79	21.1	2.8	5.37	3.27	3.18	4.16	2.16	6.82	3.25	2.56	2.83	2.92
Cc1cc2c(cc1C)[n+](=O)c(C(=O)CC(=O)C(=O)Nc1ccccc1C)c(C)n2[O-]	> 100	> 100	> 100	> 100	> 100	> 100	> 100	> 100	> 100							> 100				
COc1cc2c3c(n(CCCNC(C)(C)CO)c(=O)c2cc1OC)-c1cc2c(cc1C3=O)OCO2	7.87	1.73	> 100	2.06	56.6	31.3	> 68.2	2.65	28.4	1.39	1.08	0.255	3.81	0.356	30.8	> 78.5	17.9	0.157	0.233	0.35
CSc1nc(SC)c2cnn(-c3ccnc4cc(Cl)ccc34)c2n1	> 100	> 100	> 100	> 100	58.1	> 62.4	> 100	> 100	> 100	82.7	> 100	> 59	19.7	29.1	> 44.9	> 72.8	> 81.1	51	45.4	52.9
CCOC(=O)c1sc(Nc2cc(Cl)ccc2Cl)nc1C	> 100	> 100	> 100	> 100	> 100	> 100		> 100	> 100							> 100				
C#CCOCCCC(=O)O		> 100	> 100	> 100		> 100	> 100	> 100	> 100							> 100				
Clc1ccc(Nc2ncnc3ccccc23)cc1	> 100	> 100	> 100	> 100	> 100	> 100	> 100	73.1	> 100	> 100	55.3	46.8	38.7	> 100			91.1	23	72.5	81.5
CO[C@@H]1[C@H](N(C)C(=O)c2ccccc2)C[C@@H]2O[C@]1(C)n1c3ccccc3c3c4c(c5c6ccccc6n2c5c31)C(=O)NC4=O	> 100	> 100	> 100	> 100	> 100	59.8	> 100	> 100	> 100	> 100	0.745	0.654	0.763	1.08			1.67	0.459	3.6	0.638
CC[C@H]1[C@@H](C)C=C[C@@H](C)N1S(=O)(=O)c1ccc(C)cc1		> 100	> 100	> 100	> 100	> 100	> 100	> 100	> 100							52.9				
